In US20190049436A1, “MODULATION OF ASYMMETRIC PROLIFERATION” (THE GENERAL HOSPITAL CORPORATION, priority 2012, published 2019):
“Also recorded” adds a separate entry of the source. Where a SMILES comes first, the peptide text is derived from it. The star is where a group is joined. Cbz = O=C(OCc1ccccc1)*

Experiments:
[1] = system: MCF7 cells; assay: Tumor formation in nude mice by cells pre-treated ex vivo with AKT1/2 inhibitor
Protocol: (§1) Xenografting & tumor propagation in vivo. For in vivo RICTOR knockdown experiments, 5×10^5 cells (MCF7, HCT116, A375, PC9, MDA-MB-231 cell lines) carrying either doxycycline-inducible non-silencing or RICTOR-targeting shRNAs (120392, 225915) were injected subcutaneously into the flanks of 5-6 week old, female nude mice. The mice were given doxycycline in water at 20 mg/ml for hairpin induction. For induction of asymmetrically dividing cells and slow proliferators, cells were treated with AKT1/2 inhibitor and DMSO (vehicle) for 72 h and were harvested at 60-70% confluence, and then counted and washed twice in PBS and resuspended in 1:1 Media: Matrigel (BD Biosciences). 5×10^6, 5×10^5, 5×10^4, 5×10^3 and 5×10^2 cells respectively were injected subcutaneously into the flanks of 5-6 week old, female nude mice (Nude/Nude) (Charles River Labs). For all experiments, growing tumors were measured weekly by caliper, and mice were killed after the tumor size reached 1 cm^3. Mouse experiments were carried out under a Massachusetts General Hospital Institutional Review Board-approved protocol.
(§2) Tumor studies in vivo. For TS2/16 antibody treatment studies in vivo, we injected 5×10^5 cells (A375, MDA-MB-231, PC9, HCT116, MCF7) subcutaneously into the flanks of 5-6 week old, female nude mice (Nude/Nude) (Charles River Labs). Once the tumors were palpable, mice were injected i.p. with TS2/16 ([…] at 4 mg/ml/wk×5 weeks) and the tumors were measured. For RICTOR knockdown experiments in vivo, we injected 5×10^5 cells (A375, MDA-MB-231, PC9, HCT116, MCF7) carrying either doxycycline-inducible non-silencing or RICTOR-targeting shRNAs (120392, 225915) subcutaneously into the flanks of 5-6 week old, female nude mice (Nude/Nude). The mice were given doxycycline in water at 20 mg/ml for hairpin induction starting immediately after implantation. For induction of slow proliferators, cells were treated with AKT1/2 inhibitor and DMSO (vehicle) for 72 h and were harvested at 60-70% confluence, and then counted and washed twice in PBS and resuspended in 1:1 Media: Matrigel (BD Biosciences). We then injected 5×106, 5×105, and 5×10^4 cells respectively subcutaneously into the flanks of 5-6 week old, female nude mice. For all experiments, growing tumors were measured weekly by caliper, and mice were killed when tumors reached approximately 1 cm3 in size. Animal experiments were carried out under a Massachusetts General Hospital Institutional Review Board-approved protocol.

[2] = system: HCT116 cells; assay: as above
Protocol: as §1, §2

[3] = system: cancer cells; conditions: cited from earlier work
[4] = system: MCF7 cells; assay: Confocal immunofluorescence scoring of asymmetrically dividing and G0-like (H3K9me2low/MCM2low/HES1high) cells; assay type: cell-based, human; conditions: for frequency of asymmetrically dividing and G0-like cells / frequency of G0-like cells: MCF7; for frequency of asymmetrically dividing and G0-like cells: small molecule for 72 h at the single dose (low, non-antiproliferative or target-suppressing), vs DMSO control; for production of G0-like cells: wild-type MCF7, target-suppressing doses, 72 hours or 144 hours; for frequency of G0-like cells: proteasome inhibitor for 24 h (Bortezomib 4 μM, MG-132 10 μM), doses that do not affect overall cell proliferation
Protocol: (§3) Drug treatment in vitro. Cells were seeded onto collagen IV-coated coverslips, allowed to attach overnight, and treated with vehicle (DMSO) or AKT1/2 inhibitor (HCT116: 20μM; MCF7: 2 μM) (Sigma), MK2206 (HCT116: 10 μM; MCF7: 3 μM) (Selleck Chemicals), TORIN1 (HCT116: 0.5 μM; MCF7: 0.25 μM) (Tocris Bioscience), AZD8055 (HCT116: 0.7 μM; MCF7: 0.1 μM) (Selleck Chemicals), INK128 (HCT116: 0.05 μM; MCF7: 0.01 μM) (Active Biochem), Palomid 529 (HCT116: 10 μM; MCF7: 20 μM) (Selleck Chemicals), (Rapamycin (HCT116: 20 μM; MCF7: 20 μM)(Sigma), RAD-001 (HCT116: 10 μM; MCF7: 5 μM) (Selleck Chemicals), (AZD5363 (HCT116: 50 μM; MCF7: 5 μM) (Active Biochem), GDC0068 (HCT116: 50 μM; MCF7: 5 μM) (Active Biochem) for 72 h and Bortezemib (HCT116: 1 μM; MCF7: 4 μM) (Selleck Chemicals) MG-132 (vehicle: ethanol) (HCT116: 1 μM; MCF7: 10 μM), for 24 h.
(§4) Immunofluorescence staining. For bulk populations and for colonies, cells were grown directly on collagen IV-coated coverslips (Sigma). Cells were fixed in 3.7% formalin, permeabilized using 0.1% Triton X-100, and treated with 0.1% SDS. They were blocked in 1% BSA and then incubated with primary antibody (α-H3K9me2 (Abcam); α-MCM2 and α-Tubulin (Cell Signaling), α-Hes1 and α-TTC3 (Abnova)) diluted in blocking solution, washed, and incubated with the respective secondary antibody. Cells were mounted using hard-set mounting media containing DAPI (Vector Laboratories). All secondary antibodies were Alexa Fluor conjugates (488, 555, 568, 633, and 647) (Invitrogen). Immunofluorescence imaging (on a Nikon Eclipse Ti A1R-A1 confocal microscope) and live-cell imaging (on the Nikon Biostation CT platform) were performed as previously described (1).
(§5) Drug treatment in vitro. Cells were seeded onto collagen IV-coated coverslips, allowed to attach overnight, and treated with vehicle (DMSO) or AKT1/2 inhibitor (HCT116: 20 μM; MCF7: 2 μM) (Sigma), MK2206 (HCT116: 10 μM; MCF7: 3 μM) (Selleck Chemicals), TORIN1 (HCT116: 0.5 μM; MCF7: 0.25 μM) (Tocris Bioscience), AZD8055 (HCT116: 0.7 μM; MCF7: 0.1 μM) (Selleck Chemicals), INK128 (HCT116: 0.05 μM; MCF7: 0.01 μM) (Active Biochem), Palomid 529 (HCT116: 10 μM; MCF7: 20 μM) (Selleck Chemicals), (Rapamycin (HCT116: 20 μM; MCF7: 20 μM)(Sigma), RAD-001 (HCT116: 10 μM; MCF7: 5 μM) (Selleck Chemicals), BKM-120 (HCT116: 1.5 μM; MCF7: 0.5 μM) (Active Biochem), FAK inhibitors (PF-562271: 1 μM Pfizer) and NVP-TAE226 : 1 μM (Novartis), for both cell lines) for 72 h and Bortezemib (HCT116: 1 μM; MCF7: 4 μM) (Selleck Chemicals) MG-132 (vehicle: ethanol) (HCT116: 1 μM; MCF7: 10 μM), for 24 h.
as §4, with “(a-H3K9me2” for “(α-H3K9me2”, “A1R-A1™” for “A1R-A1”, “described7. Slides coated with Type-I collagen (control) and AlignCol™ woven with large collagen fibers (100-200 nm) (Advanced Biomatrix) were incubated for 1 hour in 70% ethanol and then washed with PBS. Cells were then plated on the slides and processed for immunofluorescence.” for “described (1).”
(§6) Antibody activation and inhibition. […]

[5] = system: HCT116 cells; assay: as above; assay type: cell-based, human; conditions: for frequency of asymmetrically dividing and G0-like cells / frequency of G0-like cells: HCT116; for frequency of asymmetrically dividing and G0-like cells: small molecule for 72 h at the single dose (low, non-antiproliferative or target-suppressing), vs DMSO control; for production of G0-like cells: wild-type HCT116, target-suppressing doses, 72 hours or 144 hours; for frequency of G0-like cells: proteasome inhibitor 1 μM for 24 h, doses that do not affect overall cell proliferation
Protocol: as §3, §4, §5
as §4, with “(a-H3K9me2” for “(α-H3K9me2”, “A1R-A1™” for “A1R-A1”, “described7. Slides coated with Type-I collagen (control) and AlignCol™ woven with large collagen fibers (100-200 nm) (Advanced Biomatrix) were incubated for 1 hour in 70% ethanol and then washed with PBS. Cells were then plated on the slides and processed for immunofluorescence.” for “described (1).”
as §6

Compound | frequency of asymmetrically dividing and G0-like cells [4] | frequency of asymmetrically dividing and G0-like cells [5] | other results
O=c1[nH]c2ccccc2n1C1CCN(Cc2ccc(-c3nc4cc5[nH]cnc5cc4nc3-c3ccccc3)cc2)CC1 [AKT1/2] | dramatically increases | dramatically increases | tumor size, larger on average than tumors from untreated cell populations ([1]; MCF7 pre-treated 72 h, implanted in nude mice): 50%; engraftment ([1]; MCF7 pre-treated 72 h with low dose, implanted s.c. in nude mice over a range of cell numbers, vs DMSO-treated cells): significantly increased; also recorded: significantly promoted; tumor size over time ([1]; MCF7 pre-treated with low dose ex vivo, s.c. in nude mice, 100-fold cell number range): notably larger; tumor size, larger on average than tumors from untreated cell populations ([2]; HCT116 pre-treated 72 h, implanted in nude mice): 50%; engraftment ([2]; HCT116 pre-treated 72 h with low dose, implanted s.c. in nude mice over a range of cell numbers, vs DMSO-treated cells): significantly increased; also recorded: significantly promoted; tumor size over time ([2]; HCT116 pre-treated with low dose ex vivo, s.c. in nude mice, 100-fold cell number range): notably larger; effect on cancer cells at higher doses [3]: kills cancer cells
COc1ccc(-c2ccc3c(N4CCOC[C@@H]4C)nc(N4CCOC[C@@H]4C)nc3n2)cc1CO [AZD8055] | significantly reduced | significantly reduced | –
Nc1cc(C(F)(F)F)c(-c2cc(N3CCOCC3)nc(N3CCOCC3)n2)cn1 [BKM-120] | not suppressed | not suppressed | production of G0-like cells [4]: not suppressed; production of G0-like cells [5]: not suppressed
CC(C)C[C@H](NC(=O)[C@H](Cc1ccccc1)NC(=O)c1cnccn1)B(O)O [Bortezomib] | – | – | frequency of G0-like cells [4]: significantly reduced; frequency of G0-like cells ([4]; listed as bortezomib): reduced; frequency of G0-like cells [5]: significantly reduced; frequency of G0-like cells ([5]; listed as bortezomib): reduced
CC(C)NC[C@@H](C(=O)N1CCN(c2ncnc3c2[C@H](C)C[C@H]3O)CC1)c1ccc(Cl)cc1 [GDC0068] | did not reduce | did not reduce | –
CC(C)n1nc(-c2ccc3oc(N)nc3c2)c2c(N)ncnc21 [INK-128] | significantly reduced | significantly reduced | –
CC(C)C[C@@H](C=O)NC(=O)[C@H](CC(C)C)NC(=O)[C@H](CC(C)C)NC(=O)OCc1ccccc1 [MG-132] (Cbz-Leu-Leu-Leu-aldehyde) | – | – | frequency of G0-like cells [4]: significantly reduced; frequency of G0-like cells [5]: significantly reduced
NC1(c2ccc(-c3nc4ccn5c(=O)[nH]nc5c4cc3-c3ccccc3)cc2)CCC1 [MK2206] | dramatically increases | dramatically increases | –
CNC(=O)c1ccccc1Nc1nc(Nc2ccc(N3CCOCC3)cc2OC)ncc1Cl [NVP-TAE226] | increased | increased | –
CN(c1ncccc1CNc1nc(Nc2ccc3c(c2)CC(=O)N3)ncc1C(F)(F)F)S(C)(=O)=O [PF-562271] | increased | increased | –
COc1ccc(COc2cc3oc(=O)c4cc(C(C)O)ccc4c3cc2OC)cc1 (centres unmarked) [Palomid-529] | significantly reduced | significantly reduced | –
CO[C@H]1C[C@@H]2CC[C@@H](C)[C@@](O)(O2)C(=O)C(=O)N2CCCC[C@H]2C(=O)O[C@H]([C@H](C)C[C@@H]2CC[C@@H](OCCO)[C@H](OC)C2)CC(=O)[C@H](C)/C=C(\C)[C@@H](O)[C@@H](OC)C(=O)[C@H](C)C[C@H](C)/C=C/C=C/C=C/1C [RAD-001] | did not suppress; also recorded: not suppressed | did not suppress; also recorded: not suppressed | production of G0-like cells [4]: not suppressed; production of G0-like cells [5]: not suppressed
CCC(=O)N1CCN(c2ccc(-n3c(=O)ccc4cnc5ccc(-c6cnc7ccccc7c6)cc5c43)cc2C(F)(F)F)CC1 [TORIN1] | significantly reduced | significantly reduced | –
AZD5363 | did not reduce | did not reduce | –
